Data taken from PubChem BioAssay (NCI).
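Where inhibition never reached the appropriate level, the endpoint shown equals the highest concentration tested. Otherwise, values were interpolated linearly from a five-concentration, 48-hour dose response in 96-well plates. GI50 is the concentration that inhibits growth by half. At the TGI there is no net growth.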

Columns and labels:
Experiment in all cases: NCI anticancer screen, dose series, 48 h
SN12C renal = tested on: SN12C renal
IGROV1 ovarian = tested on: IGROV1 ovarian
SK-MEL-28 melanoma = tested on: SK-MEL-28 melanoma
NCI-H522 lung = tested on: NCI-H522 lung
MALME-3M melanoma = tested on: MALME-3M melanoma
HOP-62 NSCLC = tested on: HOP-62 NSCLC
SNB-75 CNS = tested on: SNB-75 CNS
T-47D breast = tested on: T-47D breast
MCF7 breast = tested on: MCF7 breast
LOX IMVI melanoma = tested on: LOX IMVI melanoma
OVCAR-8 ovarian = tested on: OVCAR-8 ovarian
U251 CNS = tested on: U251 CNS
SK-OV-3 ovarian = tested on: SK-OV-3 ovarian
SK-MEL-2 melanoma = tested on: SK-MEL-2 melanoma
HCT-15 colon = tested on: HCT-15 colon
OVCAR-3 ovarian = tested on: OVCAR-3 ovarian
NCI-H23 lung = tested on: NCI-H23 lung
CAKI-1 renal = tested on: CAKI-1 renal
SF-295 CNS = tested on: SF-295 CNS
UO-31 renal = tested on: UO-31 renal
SF-268 CNS = tested on: SF-268 CNS
A498 renal = tested on: A498 renal
EKVX NSCLC = tested on: EKVX NSCLC
DU-145 prostate = tested on: DU-145 prostate
RXF 393 renal = tested on: RXF 393 renal
786-0 renal = tested on: 786-0 renal
NCI-H226 lung = tested on: NCI-H226 lung
BT-549 breast = tested on: BT-549 breast
UACC-62 melanoma = tested on: UACC-62 melanoma
CCRF-CEM leukemia = tested on: CCRF-CEM leukemia
HCC-2998 colon = tested on: HCC-2998 colon
SNB-19 CNS = tested on: SNB-19 CNS
MDA-MB-231 breast = tested on: MDA-MB-231 breast
OVCAR-4 ovarian = tested on: OVCAR-4 ovarian
NCI-H460 lung = tested on: NCI-H460 lung
M14 melanoma = tested on: M14 melanoma
SR leukemia = tested on: SR leukemia
TK-10 renal = tested on: TK-10 renal
SF-539 CNS = tested on: SF-539 CNS
K-562 leukemia = tested on: K-562 leukemia
KM12 colon = tested on: KM12 colon
A549 NSCLC = tested on: A549 NSCLC
NCI/ADR-RES ovarian = tested on: NCI/ADR-RES ovarian
MOLT-4 leukemia = tested on: MOLT-4 leukemia
HCT-116 colon = tested on: HCT-116 colon
RPMI-8226 leukemia = tested on: RPMI-8226 leukemia
SW-620 colon = tested on: SW-620 colon
COLO 205 colon = tested on: COLO 205 colon
HS 578T breast = tested on: HS 578T breast
HOP-92 NSCLC = tested on: HOP-92 NSCLC
HT29 colon = tested on: HT29 colon
OVCAR-5 ovarian = tested on: OVCAR-5 ovarian
HL-60(TB) leukemia = tested on: HL-60(TB) leukemia
ACHN renal = tested on: ACHN renal
UACC-257 melanoma = tested on: UACC-257 melanoma
SK-MEL-5 melanoma = tested on: SK-MEL-5 melanoma
PC-3 prostate = tested on: PC-3 prostate
MDA-MB-435 = tested on: MDA-MB-435
MDA-N = tested on: MDA-N

CCN(CC)c1ccc(/C=C/C2=[N+](C)c3ccccc3C2(C)C)c(C)c1
GI50 (SN12C renal): 73.8 nM
TGI (SN12C renal): 1240 nM
GI50 (IGROV1 ovarian): 117 nM
TGI (IGROV1 ovarian): 11400 nM
GI50 (SK-MEL-28 melanoma): 151 nM
TGI (SK-MEL-28 melanoma): 2730 nM
GI50 (NCI-H522 lung): 48.2 nM
TGI (NCI-H522 lung): 269 nM
GI50 (MALME-3M melanoma): 155 nM
TGI (MALME-3M melanoma): 1090 nM
GI50 (HOP-62 NSCLC): 98.3 nM
TGI (HOP-62 NSCLC): 1740 nM
GI50 (SNB-75 CNS): 73.6 nM
TGI (SNB-75 CNS): 876 nM
GI50 (T-47D breast): < 27.2 nM
TGI (T-47D breast): 1610 nM
GI50 (MCF7 breast): 57.4 nM
TGI (MCF7 breast): 1620 nM
GI50 (LOX IMVI melanoma): 53.5 nM
TGI (LOX IMVI melanoma): 1280 nM
GI50 (OVCAR-8 ovarian): 62.9 nM
TGI (OVCAR-8 ovarian): 3120 nM
GI50 (U251 CNS): 36.4 nM
TGI (U251 CNS): 2540 nM
GI50 (SK-OV-3 ovarian): 54.6 nM
TGI (SK-OV-3 ovarian): 210 nM
GI50 (SK-MEL-2 melanoma): 79.2 nM
TGI (SK-MEL-2 melanoma): 582 nM
GI50 (HCT-15 colon): 321 nM
TGI (HCT-15 colon): 10900 nM
GI50 (OVCAR-3 ovarian): 61.6 nM
TGI (OVCAR-3 ovarian): 1470 nM
GI50 (NCI-H23 lung): < 24.4 nM
TGI (NCI-H23 lung): 10500 nM
GI50 (CAKI-1 renal): 926 nM
TGI (CAKI-1 renal): 12000 nM
GI50 (SF-295 CNS): 35.8 nM
TGI (SF-295 CNS): 1490 nM
GI50 (UO-31 renal): 88 nM
TGI (UO-31 renal): 2530 nM
GI50 (SF-268 CNS): 100 nM
TGI (SF-268 CNS): 2110 nM
GI50 (A498 renal): 110 nM
TGI (A498 renal): 4020 nM
GI50 (EKVX NSCLC): 46.6 nM
TGI (EKVX NSCLC): 7860 nM
GI50 (DU-145 prostate): 98.5 nM
TGI (DU-145 prostate): 11600 nM
GI50 (RXF 393 renal): 83.7 nM
TGI (RXF 393 renal): 2850 nM
GI50 (786-0 renal): 94.1 nM
TGI (786-0 renal): 1880 nM
GI50 (NCI-H226 lung): 44.4 nM
TGI (NCI-H226 lung): 1690 nM
GI50 (BT-549 breast): < 30.9 nM
TGI (BT-549 breast): 1240 nM
GI50 (UACC-62 melanoma): 99.8 nM
TGI (UACC-62 melanoma): 2140 nM
GI50 (CCRF-CEM leukemia): 27.1 nM
TGI (CCRF-CEM leukemia): 4680 nM
GI50 (HCC-2998 colon): 102 nM
TGI (HCC-2998 colon): 5270 nM
GI50 (SNB-19 CNS): 68.4 nM
TGI (SNB-19 CNS): 9360 nM
GI50 (MDA-MB-231 breast): 101 nM
TGI (MDA-MB-231 breast): 2270 nM
GI50 (OVCAR-4 ovarian): 52.4 nM
TGI (OVCAR-4 ovarian): 11200 nM
GI50 (NCI-H460 lung): < 22.2 nM
TGI (NCI-H460 lung): 1300 nM
GI50 (M14 melanoma): 85.3 nM
TGI (M14 melanoma): 1640 nM
GI50 (SR leukemia): 27.5 nM
TGI (SR leukemia): 1710 nM
GI50 (TK-10 renal): 77.9 nM
TGI (TK-10 renal): 5300 nM
GI50 (SF-539 CNS): 93.9 nM
TGI (SF-539 CNS): 7000 nM
GI50 (K-562 leukemia): 37.7 nM
TGI (K-562 leukemia): 12200 nM
GI50 (KM12 colon): 49.1 nM
TGI (KM12 colon): 1360 nM
GI50 (A549 NSCLC): 96.4 nM
TGI (A549 NSCLC): 14100 nM
GI50 (NCI/ADR-RES ovarian): 2240 nM
TGI (NCI/ADR-RES ovarian): 13000 nM
GI50 (MOLT-4 leukemia): 51.2 nM
TGI (MOLT-4 leukemia): 1550 nM
GI50 (HCT-116 colon): < 20 nM
TGI (HCT-116 colon): 3820 nM
GI50 (RPMI-8226 leukemia): < 16.4 nM
TGI (RPMI-8226 leukemia): 466 nM
GI50 (SW-620 colon): 70.3 nM
TGI (SW-620 colon): 12800 nM
GI50 (COLO 205 colon): 48.9 nM
TGI (COLO 205 colon): 127 nM
GI50 (HS 578T breast): 129 nM
TGI (HS 578T breast): 16500 nM
GI50 (HOP-92 NSCLC): 21.7 nM
TGI (HOP-92 NSCLC): 148 nM
GI50 (HT29 colon): 46.3 nM
TGI (HT29 colon): 1320 nM
GI50 (OVCAR-5 ovarian): 128 nM
TGI (OVCAR-5 ovarian): 16800 nM
GI50 (HL-60(TB) leukemia): 36.7 nM
TGI (HL-60(TB) leukemia): 138 nM
GI50 (ACHN renal): 77.3 nM
TGI (ACHN renal): 3970 nM
GI50 (UACC-257 melanoma): 54.6 nM
TGI (UACC-257 melanoma): 226 nM
GI50 (SK-MEL-5 melanoma): 33.5 nM
TGI (SK-MEL-5 melanoma): 85.4 nM
GI50 (PC-3 prostate): 22.5 nM
TGI (PC-3 prostate): 1670 nM
GI50 (MDA-MB-435): 65.3 nM
TGI (MDA-MB-435): 1320 nM

CC1(C)CC(C#Cc2ccccc2)CC(C)(C)N1O
TGI (SN12C renal): 28800 nM
TGI (IGROV1 ovarian): > 100000 nM
TGI (SK-MEL-28 melanoma): 32800 nM
TGI (MALME-3M melanoma): 32900 nM
TGI (HOP-62 NSCLC): 32700 nM
TGI (SNB-75 CNS): 54100 nM
TGI (T-47D breast): 63800 nM
TGI (MCF7 breast): 36300 nM
TGI (LOX IMVI melanoma): 29900 nM
TGI (OVCAR-8 ovarian): 64000 nM
TGI (U251 CNS): 64600 nM
TGI (SK-OV-3 ovarian): > 100000 nM
TGI (SK-MEL-2 melanoma): 43600 nM
TGI (HCT-15 colon): 29000 nM
TGI (OVCAR-3 ovarian): 37400 nM
TGI (NCI-H23 lung): 35200 nM
TGI (CAKI-1 renal): 61300 nM
TGI (SF-295 CNS): 35100 nM
TGI (UO-31 renal): 32400 nM
TGI (SF-268 CNS): 83100 nM
TGI (EKVX NSCLC): > 100000 nM
TGI (DU-145 prostate): 41900 nM
TGI (RXF 393 renal): 63400 nM
TGI (786-0 renal): 76700 nM
TGI (NCI-H226 lung): 53600 nM
TGI (UACC-62 melanoma): 42500 nM
TGI (CCRF-CEM leukemia): > 100000 nM
TGI (HCC-2998 colon): 32200 nM
TGI (SNB-19 CNS): > 100000 nM
TGI (MDA-MB-231 breast): 29800 nM
TGI (OVCAR-4 ovarian): > 100000 nM
TGI (NCI-H460 lung): 44800 nM
TGI (M14 melanoma): 38200 nM
TGI (SR leukemia): > 100000 nM
TGI (TK-10 renal): 40500 nM
TGI (SF-539 CNS): 51800 nM
TGI (K-562 leukemia): > 100000 nM
TGI (KM12 colon): 36100 nM
TGI (A549 NSCLC): 75500 nM
TGI (NCI/ADR-RES ovarian): 73800 nM
TGI (MOLT-4 leukemia): > 100000 nM
TGI (HCT-116 colon): 43500 nM
TGI (RPMI-8226 leukemia): 69100 nM
TGI (SW-620 colon): 50500 nM
TGI (COLO 205 colon): 49400 nM
TGI (HS 578T breast): 44900 nM
TGI (HOP-92 NSCLC): 45000 nM
TGI (MDA-N): 29900 nM
TGI (HT29 colon): 29400 nM
TGI (OVCAR-5 ovarian): 44200 nM
TGI (HL-60(TB) leukemia): 64400 nM
TGI (ACHN renal): > 100000 nM
TGI (UACC-257 melanoma): 33000 nM
TGI (SK-MEL-5 melanoma): 30700 nM
TGI (PC-3 prostate): 29400 nM
TGI (MDA-MB-435): 44600 nM
